For experiment [1], the system named is bladder specimens enucleated from rats. The experiment can be described thus: Calcium antagonism against bladder specimens enucleated from rats (contraction caused by calcium chloride). The class given is cell-based, rat (male S. D.). Particulars: Rattus norvegicus; inhibition of contraction caused by 10^-3 M calcium chloride after Ca removal with 1 mM EDTA; cumulative application; corrected for spontaneous relaxation. Here is the method: (§1) Male S. D. rats weighing 220-450 g were exsanguinated to death to enucleate their bladders, thereby preparing vertically split specimens (3-5 mm wide by 10-15 mm long) with each triangular part removed therefrom. Each of the specimens was suspended in a Magnus bath filled with a Tyrode's solution (32° C.) aerated by a mixed gas (95% O2, 5% CO2) with a load of 0.5 g applied thereto. The response of the specimen was recorded in terms of isometric contraction through a tension transducer. After the stability of the specimen was attained, an effect on contraction caused by acetylcholine (10^-5 M) was investigated. Incidentally, agents to be tested were applied to the individual specimens in advance for 5 minutes before the test to investigate their effects.
Calcium antagonism against bladder specimens enucleated from rats:
After removal of calcium ion in specimens prepared in accordance with the testing method of Test Example 1 by adding 1 mM EDTA, 10^-3 M calcium chloride was applied to the specimens. After contraction caused by calcium chloride was stable, each of agents to be tested was applied cumulatively to the specimen. Assuming that the contraction upon the first application of the test agent was 100%, a value obtained by subtracting a spontaneous relaxation rage of a specimen, to which no agent was applied, from an inhibiting rate upon the application of the agent of varied concentrations was regarded as a contraction inhibiting rate.

Experiment [2] shares this test system. The experiment can be described thus: Anticholinergic effect on bladder specimens enucleated from rats (contraction caused by acetylcholine). The format is cell-based, rat (male S. D.). Particulars: Rattus norvegicus; inhibition of contraction caused by acetylcholine (10^-5 M); Tyrode's solution 32° C.; agent applied 5 minutes before. As for the experimental part:
Anticholinergic effect on bladder specimens enucleated from rats:
as §1

Where a name gives a salt, the structure may show the parent alone.

By IC30 is commonly meant the concentration needed for an effect of 30%. As a reminder, the IC50 is the concentration needed to halve the response being measured. Lower therefore signals inhibition by little substance.

In the case of `O=C(NC1CCN(Cc2ccccc2)CC1)C(O)(c1ccccc1)C1CC1` (stereo not shown) [Compound 3], the IC30 in experiment [1] came to 26600 nM. In experiment [2], this compound showed an IC50 of 27 nM.
`O=C(NC1CCN(Cc2ccccc2)CC1)C(O)(c1ccccn1)C1CCCC1` (stereo not shown) [Compound 49]: in experiment [2], half-maximal inhibition (IC50) was put at 6.5 nM.
Regarding `CC(C)C(O)(C(=O)NC1CCN(Cc2ccccc2)CC1)c1ccccc1` (stereo not shown) [Compound 23], in experiment [2], 66 nM corresponded to half-maximal inhibition (IC50).
In the case of `COc1cccc(C(O)(C(=O)NC2CCN(Cc3ccccc3)CC2)C2CCCC2)c1` (stereo not shown) [Compound 29], the IC50 in experiment [2] worked out at 850 nM. This IC50 lies about 13-fold higher than the previous one.
Turning to `CCCOC(C(=O)OC1CCN(C)CC1)(c1ccccc1)c1ccccc1` [Propiverine hydrochloride, reference compound], the IC30 in experiment [1] came to 12100 nM. Besides, half-maximal inhibition in experiment [2] (IC50) required 784 nM.
As for `O=C(NC1CCN(Cc2ccccc2)CC1)C(O)(c1ccccc1)C1CCCCC1` (stereo not shown) [Compound 1], the IC30 in experiment [1] was found to be 2660 nM. Moreover, 32 nM corresponded to half-maximal inhibition in experiment [2] (IC50).
With `O=C(NC1CCN(Cc2ccccc2)CC1)C(O)(c1cccc(Cl)c1)C1CCCC1` (stereo not shown) [Compound 35], the IC50 in experiment [2] is 200 nM.
The same measure, in the same setting: to `CN1CCC(NC(=O)C(O)(c2ccccc2)C2CCCCC2)CC1` (stereo not shown) [Compound 2] belongs 434 nM.
The compound `COc1ccc(C(O)(C(=O)NC2CCN(Cc3ccccc3)CC2)C2CCCC2)cc1` (stereo not shown) [Compound 15] showed an IC50 in experiment [2] of 130 nM.
As to `Cc1ccc(C(O)(C(=O)NC2CCN(Cc3ccccc3)CC2)C(C)C)cc1` (stereo not shown) [Compound 56], in experiment [2], the IC50 amounted to 168 nM. The IC50 values of the last two compounds are within 1.5-fold of each other.
Turning to `O=C(NC1CCN(Cc2ccccc2)CC1)C(O)(c1ccccc1)C1CCCC1` (stereo not shown) [Compound 4], the IC30 in experiment [1] was 2850 nM. The same compound displayed an IC50 in experiment [2] of 33.6 nM.
`CC(C)C(O)(C(=O)NC1CCN(Cc2ccccc2)CC1)c1cccc(Cl)c1` (stereo not shown) [Compound 34] had an IC50 in experiment [2] of 280 nM.

(Values after patent publication US5968956A, “Substituted piperidine derivative and medicine comprising the same” (SS Pharmaceutical Co., Ltd., priority 1995, dated 1999).)
